Reference: the supplement of paper PMC10307832

Key:
Assay in all cases: relative viability (nuclei count vs DMSO), 5 days (fraction); higher = more cells survive
[1] = compound: COC1=C(C=C(C=C1)C2=CC3=NC=CN3C(=N2)NC4=C(C=CC=N4)C(=O)N)OC [BAY61-3606] + CC(C)C[C@H](NC(=O)[C@H](Cc1ccccc1)NC(=O)c1cnccn1)B(O)O [Bortezomib] (partner 0.002 µM)
Summary of the method: (§1)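 After 5 days of treatment, lung cancer cells in 1536-well plates were fixed and stained in a single step (final 0.05% Triton X-100, 1% formaldehyde, 1 ug/ml Hoechst) and their nuclei counted on 4× images. Treatment had been applied by pin tool the day after seeding as one drug alone or as a fixed anchor-drug dose with five library-drug doses (not always all listed) in √10 steps. Relative viability is the nuclei count of treated wells divided by that of vehicle wells, and values are medians of duplicate plates.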

[2] = compound: COC1=C(C=C(C=C1)C2=CC3=NC=CN3C(=N2)NC4=C(C=CC=N4)C(=O)N)OC [BAY61-3606] + C[C@@H](Oc1cc(-c2cnn(C3CCNCC3)c2)cnc1N)c1c(Cl)ccc(F)c1Cl [Crizotinib] (partner 1 µM)
Summary of the method: as §1

[3] = compound: COc1cccc2c1C(=O)c1c(O)c3c(c(O)c1C2=O)C[C@@](O)(C(=O)CO)C[C@@H]3O[C@H]1C[C@H](N)[C@H](O)[C@H](C)O1 [Doxorubicin] + CC(C)C[C@H](NC(=O)[C@H](Cc1ccccc1)NC(=O)c1cnccn1)B(O)O [Bortezomib] (partner 0.002 µM)
Summary of the method: as §1

[4] = compound: COc1cccc2c1C(=O)c1c(O)c3c(c(O)c1C2=O)C[C@@](O)(C(=O)CO)C[C@@H]3O[C@H]1C[C@H](N)[C@H](O)[C@H](C)O1 [Doxorubicin] + NC(=O)Nc1cc(-c2cccc(F)c2)sc1C(=O)N[C@H]1CCCNC1 [AZD7762] (partner 0.2 µM)
Summary of the method: as §1

For NCI-H2126, the relative viability ([1]; first compound 0.02 µM) was 1.11, the relative viability ([1]; first compound 0.06325 µM) was 1.13 and the relative viability ([1]; first compound 0.2 µM) was 1.08. The relative viability ([1]; first compound 0.6325 µM) was 1.08, the relative viability ([1]; first compound 2 µM) was 1.07 and the relative viability ([2]; first compound 0.02 µM) was 1.06. The relative viability ([2]; first compound 0.06325 µM) was 1.01, the relative viability ([2]; first compound 0.2 µM) was 1 and the relative viability ([2]; first compound 0.6325 µM) was 0.973. For the same cell line, the relative viability ([2]; first compound 2 µM) was 0.893, the relative viability ([3]; first compound 0.001 µM) was 1.08 and the relative viability ([3]; first compound 0.003162 µM) was 1.12. The relative viability ([3]; first compound 0.01 µM) was 1.1, the relative viability ([3]; first compound 0.03162 µM) was 1.1 and the relative viability ([3]; first compound 0.1 µM) was 1.13. For the same cell line, the relative viability ([4]; first compound 0.001 µM) was 0.913, the relative viability ([4]; first compound 0.003162 µM) was 0.921 and the relative viability ([4]; first compound 0.01 µM) was 0.966. The relative viability ([4]; first compound 0.03162 µM) was 0.985 and the relative viability ([4]; first compound 0.1 µM) was 1.
Cell Line BEN has a relative viability ([1]; first compound 0.02 µM) of 0.99, a relative viability ([1]; first compound 0.06325 µM) of 0.829 and a relative viability ([1]; first compound 0.2 µM) of 0.764. It also gave a relative viability ([1]; first compound 0.6325 µM) of 0.799, a relative viability ([1]; first compound 2 µM) of 0.931 and a relative viability ([2]; first compound 0.02 µM) of 0.88. For the same cell line, the relative viability ([2]; first compound 0.06325 µM) was 0.748, the relative viability ([2]; first compound 0.2 µM) was 1.1 and the relative viability ([2]; first compound 0.6325 µM) was 1.06. It also gave a relative viability ([2]; first compound 2 µM) of 0.84, a relative viability ([3]; first compound 0.001 µM) of 1.01 and a relative viability ([3]; first compound 0.003162 µM) of 1.05. It also gave a relative viability ([3]; first compound 0.01 µM) of 0.821, a relative viability ([3]; first compound 0.03162 µM) of 0.632 and a relative viability ([3]; first compound 0.1 µM) of 0.74. For the same cell line, the relative viability ([4]; first compound 0.001 µM) was 0.96, the relative viability ([4]; first compound 0.003162 µM) was 0.65 and the relative viability ([4]; first compound 0.01 µM) was 0.82. The relative viability ([4]; first compound 0.03162 µM) was 0.562 and the relative viability ([4]; first compound 0.1 µM) was 0.624.
With LCLC-97TM1 the relative viability ([1]; first compound 0.02 µM) was 0.639, the relative viability ([1]; first compound 0.06325 µM) was 0.73 and the relative viability ([1]; first compound 0.2 µM) was 0.527. It also gave a relative viability ([1]; first compound 0.6325 µM) of 0.533, a relative viability ([1]; first compound 2 µM) of 0.702 and a relative viability ([2]; first compound 0.02 µM) of 0.262. The relative viability ([2]; first compound 0.2 µM) was 0.341, the relative viability ([2]; first compound 0.6325 µM) was 0.395 and the relative viability ([2]; first compound 2 µM) was 0.262. The relative viability ([3]; first compound 0.001 µM) was 0.528, the relative viability ([3]; first compound 0.003162 µM) was 0.434 and the relative viability ([3]; first compound 0.01 µM) was 0.265. It also gave a relative viability ([3]; first compound 0.03162 µM) of 0.151, a relative viability ([3]; first compound 0.1 µM) of 0.0908 and a relative viability ([4]; first compound 0.001 µM) of 0.235. For the same cell line, the relative viability ([4]; first compound 0.003162 µM) was 0.218, the relative viability ([4]; first compound 0.01 µM) was 0.303 and the relative viability ([4]; first compound 0.03162 µM) was 0.244. It also gave a relative viability ([4]; first compound 0.1 µM) of 0.211.
EKVX was tested, and the relative viability ([1]; first compound 0.02 µM) was 1.12, the relative viability ([1]; first compound 0.06325 µM) was 1.09 and the relative viability ([1]; first compound 0.2 µM) was 1.03. For the same cell line, the relative viability ([1]; first compound 0.6325 µM) was 1.16, the relative viability ([1]; first compound 2 µM) was 1.06 and the relative viability ([2]; first compound 0.02 µM) was 0.972. For the same cell line, the relative viability ([2]; first compound 0.06325 µM) was 0.868, the relative viability ([2]; first compound 0.2 µM) was 0.976 and the relative viability ([2]; first compound 0.6325 µM) was 1.15. It also gave a relative viability ([2]; first compound 2 µM) of 0.806, a relative viability ([3]; first compound 0.001 µM) of 0.956 and a relative viability ([3]; first compound 0.003162 µM) of 1.04. For the same cell line, the relative viability ([3]; first compound 0.01 µM) was 1.06, the relative viability ([3]; first compound 0.03162 µM) was 0.994 and the relative viability ([3]; first compound 0.1 µM) was 0.591. For the same cell line, the relative viability ([4]; first compound 0.001 µM) was 0.719, the relative viability ([4]; first compound 0.003162 µM) was 0.844 and the relative viability ([4]; first compound 0.01 µM) was 0.794. The relative viability ([4]; first compound 0.03162 µM) was 0.725 and the relative viability ([4]; first compound 0.1 µM) was 0.486.
ABC-1 showed a relative viability ([1]; first compound 0.02 µM) of 0.291, a relative viability ([1]; first compound 0.06325 µM) of 0.308 and a relative viability ([1]; first compound 0.2 µM) of 0.35. It also gave a relative viability ([1]; first compound 0.6325 µM) of 0.427, a relative viability ([1]; first compound 2 µM) of 0.284 and a relative viability ([2]; first compound 0.02 µM) of 0.999. The relative viability ([2]; first compound 0.06325 µM) was 0.978, the relative viability ([2]; first compound 0.2 µM) was 0.992 and the relative viability ([2]; first compound 0.6325 µM) was 1.02. For the same cell line, the relative viability ([2]; first compound 2 µM) was 0.821, the relative viability ([3]; first compound 0.001 µM) was 0.304 and the relative viability ([3]; first compound 0.003162 µM) was 0.324. The relative viability ([3]; first compound 0.01 µM) was 0.364, the relative viability ([3]; first compound 0.03162 µM) was 0.273 and the relative viability ([3]; first compound 0.1 µM) was 0.251. It also gave a relative viability ([4]; first compound 0.001 µM) of 0.443, a relative viability ([4]; first compound 0.003162 µM) of 0.937 and a relative viability ([4]; first compound 0.03162 µM) of 0.655. The relative viability ([4]; first compound 0.1 µM) was 0.6.
PC-14 showed a relative viability ([1]; first compound 0.02 µM) of 0.829, a relative viability ([1]; first compound 0.06325 µM) of 0.883 and a relative viability ([1]; first compound 0.2 µM) of 0.801. It also gave a relative viability ([1]; first compound 0.6325 µM) of 0.949, a relative viability ([1]; first compound 2 µM) of 0.728 and a relative viability ([2]; first compound 0.02 µM) of 0.855. It also gave a relative viability ([2]; first compound 0.06325 µM) of 0.803, a relative viability ([2]; first compound 0.2 µM) of 0.865 and a relative viability ([2]; first compound 0.6325 µM) of 0.974. The relative viability ([2]; first compound 2 µM) was 0.757, the relative viability ([3]; first compound 0.001 µM) was 0.775 and the relative viability ([3]; first compound 0.003162 µM) was 0.964. The relative viability ([3]; first compound 0.01 µM) was 0.861, the relative viability ([3]; first compound 0.03162 µM) was 0.979 and the relative viability ([3]; first compound 0.1 µM) was 0.94. It also gave a relative viability ([4]; first compound 0.001 µM) of 0.387, a relative viability ([4]; first compound 0.003162 µM) of 0.366 and a relative viability ([4]; first compound 0.01 µM) of 0.519. For the same cell line, the relative viability ([4]; first compound 0.03162 µM) was 0.259 and the relative viability ([4]; first compound 0.1 µM) was 0.15.
NCI-H1651 was tested, and the relative viability ([1]; first compound 0.02 µM) was 1.03, the relative viability ([1]; first compound 0.06325 µM) was 0.99 and the relative viability ([1]; first compound 0.2 µM) was 0.911. The relative viability ([1]; first compound 0.6325 µM) was 0.941, the relative viability ([1]; first compound 2 µM) was 0.952 and the relative viability ([2]; first compound 0.02 µM) was 0.882. It also gave a relative viability ([2]; first compound 0.06325 µM) of 0.873, a relative viability ([2]; first compound 0.2 µM) of 0.846 and a relative viability ([2]; first compound 0.6325 µM) of 0.869. The relative viability ([2]; first compound 2 µM) was 0.777, the relative viability ([3]; first compound 0.001 µM) was 0.987 and the relative viability ([3]; first compound 0.003162 µM) was 0.958. It also gave a relative viability ([3]; first compound 0.01 µM) of 0.869, a relative viability ([3]; first compound 0.03162 µM) of 0.842 and a relative viability ([3]; first compound 0.1 µM) of 0.902. The relative viability ([4]; first compound 0.001 µM) was 0.466, the relative viability ([4]; first compound 0.003162 µM) was 0.536 and the relative viability ([4]; first compound 0.01 µM) was 0.399. It also gave a relative viability ([4]; first compound 0.03162 µM) of 0.509 and a relative viability ([4]; first compound 0.1 µM) of 0.397.
For NCI-H2087, the relative viability ([1]; first compound 0.02 µM) was 0.908, the relative viability ([1]; first compound 0.06325 µM) was 0.862 and the relative viability ([1]; first compound 0.2 µM) was 0.869. The relative viability ([1]; first compound 0.6325 µM) was 0.759, the relative viability ([1]; first compound 2 µM) was 0.746 and the relative viability ([2]; first compound 0.02 µM) was 0.585. The relative viability ([2]; first compound 0.06325 µM) was 0.931, the relative viability ([2]; first compound 0.2 µM) was 0.818 and the relative viability ([2]; first compound 0.6325 µM) was 0.863. The relative viability ([2]; first compound 2 µM) was 0.619, the relative viability ([3]; first compound 0.001 µM) was 0.6 and the relative viability ([3]; first compound 0.003162 µM) was 0.7. For the same cell line, the relative viability ([3]; first compound 0.01 µM) was 0.869, the relative viability ([3]; first compound 0.03162 µM) was 0.678 and the relative viability ([3]; first compound 0.1 µM) was 0.55. It also gave a relative viability ([4]; first compound 0.001 µM) of 1.3, a relative viability ([4]; first compound 0.003162 µM) of 1.32 and a relative viability ([4]; first compound 0.01 µM) of 1.32. The relative viability ([4]; first compound 0.03162 µM) was 1.34 and the relative viability ([4]; first compound 0.1 µM) was 1.17.
